US20150183737A1, “COMPOSITIONS AND METHODS FOR SUBSTRATE-SELECTIVE INHIBITION OF ENDOCANNABINOID OXYGENATION” (Vanderbilt University, priority 2012, published 2015)

Key:
purified murine COX-2 = target: T1, purified murine COX-2 (Mus musculus, UniProt Q05769); settings: chiral profens; at 10 μM inhibitor; data taken from reference 10; cited from earlier work
T1 sequence (Q05769 18-604): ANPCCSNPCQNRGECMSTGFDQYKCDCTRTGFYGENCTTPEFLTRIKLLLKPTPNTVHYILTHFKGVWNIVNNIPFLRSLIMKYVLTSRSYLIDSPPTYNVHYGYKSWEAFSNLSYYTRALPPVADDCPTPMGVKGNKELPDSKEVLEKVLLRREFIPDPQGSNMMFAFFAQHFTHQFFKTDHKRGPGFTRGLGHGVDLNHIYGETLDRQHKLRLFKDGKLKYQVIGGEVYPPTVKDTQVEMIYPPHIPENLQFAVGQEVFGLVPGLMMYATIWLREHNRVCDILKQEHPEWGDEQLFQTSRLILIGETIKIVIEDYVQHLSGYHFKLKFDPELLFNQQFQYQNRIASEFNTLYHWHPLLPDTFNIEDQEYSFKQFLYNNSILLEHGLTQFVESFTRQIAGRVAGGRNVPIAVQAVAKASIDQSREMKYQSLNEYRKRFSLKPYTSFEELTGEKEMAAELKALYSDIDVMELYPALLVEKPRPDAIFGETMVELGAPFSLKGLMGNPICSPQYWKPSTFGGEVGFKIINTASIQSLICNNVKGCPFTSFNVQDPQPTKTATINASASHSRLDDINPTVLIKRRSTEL

[1] = target: COX-2 in dorsal root ganglion cells (DRGs) (Mus musculus, UniProt Q05769)
Procedure: Treatment with inflammatory stimuli was performed as described herein below.
DRGs were harvested from E14 mouse embryos and plated onto collagen-coated dishes. After being cultured for 3-5 days, they were treated overnight with granulocyte-macrophage colony-stimulating factor followed by lipopolysaccharide, interferon γ, and 10 μM 15(S)-hydroxy-5,8,11,13-eicosatetraenoic acid for 6 hours.
DRGs, activated as above for 3 hours were treated with ionomycin for an additional 3 hours to stimulate substrate release.
The amounts of prostaglandin, PG-G, and PG-EA were quantified using stable-isotope dilution methods with labeled internal standards.

## COc1ccc2cc([C@@H](C)C(=O)O)ccc2c1 [Compound 7b, (R)-naproxen]
Purified murine COX-2
  % Inhibition AA: 0%
[1]; at concentrations that inhibited PG-G and PG-EA synthesis
  Synthesis of prostaglandins in DRGs: did not inhibit
[1]; stimulated DRGs
  Amounts of AEA and 2-AG in cell extracts: increased
